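Cells were grown in 96-well plates and exposed to each compound for 48 hours at five concentrations; endpoints were interpolated linearly between bracketing concentrations, or set to the highest concentration if not reached. GI50: concentration for 50% inhibition of growth.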 The source made the active and inactive calls. Cut-off read from the data, not from the text of the source: active = GI50 up to about 1.1 µM and inactive = higher.
Assays:
Assay in all cases: DTP human tumour cell line panel, 48 h
786-0 = system: 786-0
A549 = system: A549
COLO 205 = system: COLO 205
DU-145 = system: DU-145
HCC 2998 = system: HCC 2998
HCT-116 = system: HCT-116
HL-60 = system: HL-60
HOP-92 = system: HOP-92
HT-29 = system: HT-29
KM12 = system: KM12
MDA-MB-231 = system: MDA-MB-231
Malme-3M = system: Malme-3M
NCI-H460 = system: NCI-H460
RPMI-8226 = system: RPMI-8226
SF-268 = system: SF-268
SK-MEL-5 = system: SK-MEL-5
SNB-75 = system: SNB-75
UO-31 = system: UO-31

| Compound | GI50 (786-0) | GI50 (A549) | GI50 (COLO 205) | GI50 (DU-145) | GI50 (HCC 2998) | GI50 (HCT-116) | GI50 (HL-60) | GI50 (HOP-92) | GI50 (HT-29) | GI50 (KM12) | GI50 (MDA-MB-231) | GI50 (Malme-3M) | GI50 (NCI-H460) | GI50 (RPMI-8226) | GI50 (SF-268) | GI50 (SK-MEL-5) | GI50 (SNB-75) | GI50 (UO-31) |
| --- | --- | --- | --- | --- | --- | --- | --- | --- | --- | --- | --- | --- | --- | --- | --- | --- | --- | --- |
| O=C(O)CCC1COc2ccccc2O1 (stereo not given) | > 10 µM (inactive) | > 10 µM (inactive) | > 10 µM (inactive) | > 10 µM (inactive) | > 10 µM (inactive) | > 10 µM (inactive) | > 10 µM (inactive) | > 10 µM (inactive) | > 10 µM (inactive) | > 10 µM (inactive) | > 10 µM (inactive) | > 10 µM (inactive) | > 10 µM (inactive) | > 10 µM (inactive) | > 10 µM (inactive) | > 10 µM (inactive) | > 10 µM (inactive) | > 10 µM (inactive) |
| C=C1CC(COc2cc(=O)oc3ccccc23)(c2ccccc2)OC1=O (stereo not given) | 1.51 µM (inactive) | 11.2 µM (inactive) | 1.51 µM (inactive) | 2.44 µM (inactive) | 1.05 µM (active) | 1.46 µM (inactive) | 0.407 µM (active) | 1.01 µM (active) | 1.38 µM (inactive) | 3.34 µM (inactive) | 3.61 µM (inactive) | 1.33 µM (inactive) | 9.29 µM (inactive) | 0.507 µM (active) | 7.33 µM (inactive) | 1.71 µM (inactive) | 4.25 µM (inactive) | 6.64 µM (inactive) |
| CSC1SCC2C(=O)N(C)C3(CC3C)C(=O)OCC(NC(=O)c3nc4ccccc4cc3O)C(=O)NC(C)C(=O)N(C)C1C(=O)N(C)C1(CC1C)C(=O)OCC(NC(=O)c1nc3ccccc3cc1O)C(=O)NC(C)C(=O)N2C (stereo not given) | < 0.0001 µM (active) | < 0.0001 µM (active) | < 0.0001 µM (active) | < 0.0001 µM (active) | < 0.0001 µM (active) | < 0.0001 µM (active) | < 0.0001 µM (active) | < 0.0001 µM (active) | < 0.0001 µM (active) | < 0.0001 µM (active) | < 0.0001 µM (active) | < 0.0001 µM (active) | < 0.0001 µM (active) | < 0.0001 µM (active) | < 0.0001 µM (active) | < 0.0001 µM (active) | < 0.0001 µM (active) | 0.000449 µM (active) |
| N#CSC/C(Cl)=C/Cl.N#CSC/C(Cl)=C\Cl | > 100 µM (inactive) | > 100 µM (inactive) | > 100 µM (inactive) | > 100 µM (inactive) | 0.069 µM (active) | > 100 µM (inactive) | 43.9 µM (inactive) | > 100 µM (inactive) | > 100 µM (inactive) | > 100 µM (inactive) | > 100 µM (inactive) | > 100 µM (inactive) | > 100 µM (inactive) | 92.3 µM (inactive) | > 100 µM (inactive) | > 100 µM (inactive) | > 100 µM (inactive) | > 100 µM (inactive) |
| C/C(=N\NS(=O)(=O)c1ccc(C)cc1)c1ccccn1 | 45.3 µM (inactive) | 53.3 µM (inactive) | 32.7 µM (inactive) | > 100 µM (inactive) | > 100 µM (inactive) | 40.7 µM (inactive) | 34 µM (inactive) | > 100 µM (inactive) | 44.5 µM (inactive) | 43.7 µM (inactive) | > 100 µM (inactive) | 60.3 µM (inactive) | 49.7 µM (inactive) | > 100 µM (inactive) | 67.3 µM (inactive) | 33.4 µM (inactive) | > 100 µM (inactive) | 40.5 µM (inactive) |
| CN(CCNC(=O)c1nn(-c2ccccc2)c2c1Cc1ccccc1-2)CCNC(=O)c1nn(-c2ccccc2)c2c1Cc1ccccc1-2 | 1.66 µM (inactive) | 2.06 µM (inactive) | 1.79 µM (inactive) | 2.59 µM (inactive) | 1.74 µM (inactive) | 1.65 µM (inactive) | 1.32 µM (inactive) | 1.53 µM (inactive) | 1.85 µM (inactive) | 1.79 µM (inactive) | 1.82 µM (inactive) | 1.82 µM (inactive) | 1.69 µM (inactive) | 4.01 µM (inactive) | 2.02 µM (inactive) | 1.79 µM (inactive) | 1.69 µM (inactive) | 1.63 µM (inactive) |
| O=C1c2c(F)c(F)c(F)c(F)c2SC2=Nc3cccc4cccc(c34)N12 | 5.51 µM (inactive) | 18.5 µM (inactive) | 9.35 µM (inactive) | 12.2 µM (inactive) | 13.9 µM (inactive) | 4.08 µM (inactive) | 2.07 µM (inactive) | 2.37 µM (inactive) | 7.48 µM (inactive) | 3.05 µM (inactive) | 3.24 µM (inactive) | 3.48 µM (inactive) | 10 µM (inactive) | 2.62 µM (inactive) | 3.61 µM (inactive) | 14.1 µM (inactive) | 12.1 µM (inactive) | 9.16 µM (inactive) |
| O=C1NC2=NOC(=O)NC2=NO1 | > 200 µM (inactive) | > 200 µM (inactive) | > 200 µM (inactive) | > 200 µM (inactive) | > 200 µM (inactive) | > 200 µM (inactive) | > 200 µM (inactive) | > 200 µM (inactive) | > 200 µM (inactive) | > 200 µM (inactive) | > 200 µM (inactive) | > 200 µM (inactive) | > 200 µM (inactive) | > 200 µM (inactive) | > 200 µM (inactive) | > 200 µM (inactive) | > 200 µM (inactive) | > 200 µM (inactive) |
| C1=C(c2ccccc2)C(N2CCOCC2)Oc2ccccc21 (stereo not given) | > 100 µM (inactive) | > 100 µM (inactive) | > 100 µM (inactive) | > 100 µM (inactive) | > 100 µM (inactive) | > 100 µM (inactive) | 42.7 µM (inactive) | > 100 µM (inactive) | > 100 µM (inactive) | > 100 µM (inactive) | > 100 µM (inactive) | > 100 µM (inactive) | > 100 µM (inactive) | 96.4 µM (inactive) | > 100 µM (inactive) | > 100 µM (inactive) | 32.5 µM (inactive) | 87.7 µM (inactive) |
| CC(=O)O[C@H]1C(=O)[C@@]2(C)[C@H]([C@H](OC(=O)C3CCCCC3)[C@]3(O)C[C@H](OC(=O)[C@H](O)[C@@H](NC(=O)OC(C)(C)C)c4ccccc4)C(C)=C1C3(C)C)[C@]1(OC(C)=O)CO[C@@H]1C[C@@H]2O | 0.0176 µM (active) | 0.0194 µM (active) | 0.013 µM (active) | 0.0867 µM (active) | 0.0299 µM (active) | 0.00378 µM (active) | 0.00125 µM (active) | 0.0148 µM (active) | 0.00335 µM (active) | 0.00731 µM (active) | 0.0427 µM (active) | 0.177 µM (active) | 0.00762 µM (active) | 0.00457 µM (active) | 0.202 µM (active) | 0.0107 µM (active) | 0.402 µM (active) | 0.849 µM (active) |
| CC1=C(C#N)C23C(=O)c4ccccc4C(=O)C2=C(O)C=CC3(O)N1 (stereo not given) | 2.2 µM (inactive) | 1.67 µM (inactive) | 2.03 µM (inactive) | 2.98 µM (inactive) | 4.02 µM (inactive) | 5.68 µM (inactive) | 0.313 µM (active) | 2.12 µM (inactive) | 1.23 µM (inactive) | 9.08 µM (inactive) | 8.83 µM (inactive) | 1.78 µM (inactive) | 5.46 µM (inactive) | 0.658 µM (active) | 6.61 µM (inactive) | 1.06 µM (active) | 2.3 µM (inactive) | 2.37 µM (inactive) |
| CC(C)(C)OC(=O)c1ccc(NCC2=C(Br)C(=O)C=CC2=O)cc1 | 17.5 µM (inactive) | 57.8 µM (inactive) | 18.2 µM (inactive) | 35.7 µM (inactive) | 21.5 µM (inactive) | 17.7 µM (inactive) | 1.79 µM (inactive) | 14.5 µM (inactive) | 17.5 µM (inactive) | 33.3 µM (inactive) | 19.1 µM (inactive) | 14.9 µM (inactive) | 36.3 µM (inactive) | 10.3 µM (inactive) | 19.6 µM (inactive) | 15.9 µM (inactive) | 39.5 µM (inactive) | 14 µM (inactive) |
| COc1ccc(/C=C/C(=O)c2ccccc2)cc1OC | 4.97 µM (inactive) | 20.9 µM (inactive) | 15.9 µM (inactive) | 11.4 µM (inactive) | 17.9 µM (inactive) | 6.38 µM (inactive) | 8.89 µM (inactive) | 18.5 µM (inactive) | 5.3 µM (inactive) | 3.13 µM (inactive) | 19.5 µM (inactive) | 16.7 µM (inactive) | 16.6 µM (inactive) | 7.41 µM (inactive) | 14.5 µM (inactive) | 16.8 µM (inactive) | 14 µM (inactive) | 13.3 µM (inactive) |
| Cc1cccc(-c2cc(O)c3ccc(C)nc3n2)c1 | 0.43 µM (active) | 0.508 µM (active) | 0.14 µM (active) | 0.598 µM (active) | 1.07 µM (active) | 0.297 µM (active) | 0.0902 µM (active) | 1.14 µM (inactive) | 0.198 µM (active) | 0.12 µM (active) | 0.409 µM (active) | 0.296 µM (active) | 0.334 µM (active) | 0.43 µM (active) | 0.723 µM (active) | 0.0895 µM (active) | 0.233 µM (active) | 3.77 µM (inactive) |
| Sc1nn2c(COc3ccc(Cl)cc3)nnc2s1 | > 100 µM (inactive) | > 100 µM (inactive) | > 100 µM (inactive) | > 100 µM (inactive) | > 100 µM (inactive) | > 100 µM (inactive) | > 100 µM (inactive) | > 100 µM (inactive) | > 100 µM (inactive) | > 100 µM (inactive) | > 100 µM (inactive) | > 100 µM (inactive) | > 100 µM (inactive) | > 100 µM (inactive) | > 100 µM (inactive) | > 100 µM (inactive) | > 100 µM (inactive) | > 100 µM (inactive) |

Source: ChEMBL document CHEMBL1201862, “PubChem BioAssay data set” (2004)
